This assay concerns the target T1, cyclooxygenase-1 (COX-1) (Ovis aries, UniProt P05979).
T1 sequence (P05979 25-600): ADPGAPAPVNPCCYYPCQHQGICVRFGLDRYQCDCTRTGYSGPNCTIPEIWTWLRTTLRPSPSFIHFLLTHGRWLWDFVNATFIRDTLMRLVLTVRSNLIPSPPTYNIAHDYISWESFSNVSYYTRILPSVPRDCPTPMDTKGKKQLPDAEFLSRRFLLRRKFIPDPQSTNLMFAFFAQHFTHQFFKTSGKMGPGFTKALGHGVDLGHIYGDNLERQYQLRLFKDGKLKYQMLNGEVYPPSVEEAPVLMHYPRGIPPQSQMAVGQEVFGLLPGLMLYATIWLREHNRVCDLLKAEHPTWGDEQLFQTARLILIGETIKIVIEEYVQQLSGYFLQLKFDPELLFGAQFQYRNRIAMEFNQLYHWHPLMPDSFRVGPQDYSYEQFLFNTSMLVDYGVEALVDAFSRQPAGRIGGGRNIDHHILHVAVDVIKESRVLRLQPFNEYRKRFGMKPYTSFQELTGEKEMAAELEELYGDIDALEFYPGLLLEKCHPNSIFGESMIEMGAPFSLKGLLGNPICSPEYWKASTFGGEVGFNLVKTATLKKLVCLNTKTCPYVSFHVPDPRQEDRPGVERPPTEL
Briefly: O2 consumption. It counts as biochemical.

Some results are limits rather than exact numbers.

In turn, `COc1cc(O)c2c(=O)cc(-c3ccc(OC)c(-c4c(O)cc(O)c5c(=O)cc(-c6ccc(O)cc6)oc45)c3)oc2c1` [compound 1, ginkgetin] came in with an IC50 of over 100 µM.

The values above are taken from article PMC3715805 (International Journal of Molecular Sciences, 2007).
